The values that follow come from US11207325B2, “Triazolopyrimidine compounds and uses thereof” (Novartis AG, priority 2014, dated 2021).

The test has as its system H3K27 methylation in G401 cell. The test is described as follows: ELISA (H3K27 methylation) assay. Format: cell-based. As to conditions: Homo sapiens, G-401; ELISA Qualified assay (H3K27 methylation); read-out: (c) IC50 (μM), ELISA Qualified. The source says:
ELISA (H3K27 Methylation) Assay
Regarding `Fc1ccc(-c2cnc(NCc3c(F)ccc4c3CCO4)n3cnnc23)c(Cl)c1` [Example 157, 8-(2-chloro-4-fluorophenyl)-N-((5-fluoro-2,3-dihydrobenzofuran-4-yl)methyl)-[1,2,4]triazolo[4,3-c]pyrimidin-5-amine], the IC50 stood at 0.445 µM.

As for `Cc1nn(CCO)c(C)c1-c1cnc(NCc2c(F)ccc3c2CCO3)n2cnnc12` [Example 158, 2-(4-(5-(((5-fluoro-2,3-dihydrobenzofuran-4-yl)methyl)amino)-[1,2,4]triazolo[4,3-c]pyrimidin-8-yl)-3,5-dimethyl-1H-pyrazol-1-yl)ethanol], the IC50 stood at 0.0067 µM.

On to `Fc1ccc2c(c1CNc1ncc(-c3ccncc3Cl)c3nncn13)CCO2` [Example 162, 8-(3-chloropyridin-4-yl)-N-((5-fluoro-2,3-dihydrobenzofuran-4-yl)methyl)-[1,2,4]triazolo[4,3-c]pyrimidin-5-amine], for which the IC50 amounted to 0.0273 µM.

On to `Cc1ccc(-c2cnc(NCc3c(F)ccc4c3CCO4)n3cnnc23)c(C)n1` [Example 167, 8-(2,6-dimethylpyridin-3-yl)-N-((5-fluoro-2,3-dihydrobenzofuran-4-yl)methyl)-[1,2,4]triazolo[4,3-c]pyrimidin-5-amine], for which the half-inhibitory concentration (IC50) came to 0.0393 µM.

As for `Fc1ccc2c(c1CNc1ncc(-c3cccnc3C(F)F)c3nncn13)CCO2` [Example 168, 8-(2-(difluoromethyl)pyridin-3-yl)-N-((5-fluoro-2,3-dihydrobenzofuran-4-yl)methyl)-[1,2,4]triazolo[4,3-c]pyrimidin-5-amine], the IC50 was determined as 0.002 µM.

As to `Cn1nccc1-c1cnc(NCc2c(F)ccc3c2CCO3)n2cnnc12` [Example 169, N-((5-fluoro-2,3-dihydrobenzofuran-4-yl)methyl)-8-(1-methyl-1H-pyrazol-5-yl)-[1,2,4]triazolo[4,3-c]pyrimidin-5-amine], the IC50 came out at 0.0029 µM.

With `Cn1cc(-c2cnc(NCc3c(F)ccc4c3CCO4)n3cnnc23)c(C(F)(F)F)n1` [Example 170, N-((5-fluoro-2,3-dihydrobenzofuran-4-yl)methyl)-8-(1-methyl-3-(trifluoromethyl)-1H-pyrazol-4-yl)-[1,2,4]triazolo[4,3-c]pyrimidin-5-amine], the IC50 was determined as 0.0232 µM.

`CC(=O)NCc1ccc(-c2cnc(NCc3c(F)ccc4c3CCO4)n3cnnc23)cn1` [Example 171, N-((5-(5-(((5-fluoro-2,3-dihydrobenzofuran-4-yl)methyl)amino)-[1,2,4]triazolo[4,3-c]pyrimidin-8-yl)pyridin-2-yl)methyl)acetamide]: the IC50 came out at 0.0265 µM.

Regarding `Cc1c(-c2cnc(NCc3c(F)ccc4c3CCO4)n3cnnc23)cnn1C` [Example 172, 8-(1,5-dimethyl-1H-pyrazol-4-yl)-N-((5-fluoro-2,3-dihydrobenzofuran-4-yl)methyl)-[1,2,4]triazolo[4,3-c]pyrimidin-5-amine], the IC50 is 0.0044 µM.

In the case of `Cc1cc(C2CC2)ncc1-c1cnc(NCc2c(F)ccc3c2CCO3)n2cnnc12` [Example 173, 8-(6-cyclopropyl-4-methylpyridin-3-yl)-N-((5-fluoro-2,3-dihydrobenzofuran-4-yl)methyl)-[1,2,4]triazolo[4,3-c]pyrimidin-5-amine], the half-inhibitory concentration (IC50) is 0.0152 µM.

`COc1ncc(-c2cnc(NCc3c(F)ccc4c3CCO4)n3cnnc23)cn1` [Example 174, N-((5-fluoro-2,3-dihydrobenzofuran-4-yl)methyl)-8-(2-methoxypyrimidin-5-yl)-[1,2,4]triazolo[4,3-c]pyrimidin-5-amine]: the IC50 turned out to be 0.0042 µM.

On to `COc1ncc(-c2cnc(NCc3c(F)ccc4c3CCO4)n3cnnc23)c(C)n1` [Example 175, N-((5-fluoro-2,3-dihydrobenzofuran-4-yl)methyl)-8-(2-methoxy-4-methylpyrimidin-5-yl)-[1,2,4]triazolo[4,3-c]pyrimidin-5-amine], for which the IC50 was 0.0034 µM.

As to `Cc1ncncc1-c1cnc(NCc2c(F)ccc3c2CCO3)n2cnnc12` [Example 176, N-((5-fluoro-2,3-dihydrobenzofuran-4-yl)methyl)-8-(4-methylpyrimidin-5-yl)-[1,2,4]triazolo[4,3-c]pyrimidin-5-amine], the IC50 was found to be 0.0046 µM.

Consider `Cc1nccc(-c2cnc(NCc3c(F)ccc4c3CCO4)n3cnnc23)c1C` [Example 177, 8-(2,3-dimethylpyridin-4-yl)-N-((5-fluoro-2,3-dihydrobenzofuran-4-yl)methyl)-[1,2,4]triazolo[4,3-c]pyrimidin-5-amine], for which the IC50 is 0.0044 µM.

Turning to `Cc1cc(C#N)ccc1-c1cnc(NCc2c(F)ccc3c2CCO3)n2cnnc12` [Example 178, 4-(5-(((5-fluoro-2,3-dihydrobenzofuran-4-yl)methyl)amino)-[1,2,4]triazolo[4,3-c]pyrimidin-8-yl)-3-methylbenzonitrile], the IC50 came to 0.0114 µM.

Take `Cc1nn(C2CC2)c(C)c1-c1cnc(NCc2c(F)ccc3c2CCO3)n2cnnc12` [Example 179, 8-(1-cyclopropyl-3,5-dimethyl-1H-pyrazol-4-yl)-N-((5-fluoro-2,3-dihydrobenzofuran-4-yl)methyl)-[1,2,4]triazolo[4,3-c]pyrimidin-5-amine]: the IC50 stood at 0.0091 µM.

Regarding `Cc1c(-c2cnc(NCc3c(F)ccc4c3CCO4)n3cnnc23)ccnc1F` [Example 180, N-((5-fluoro-2,3-dihydrobenzofuran-4-yl)methyl)-8-(2-fluoro-3-methylpyridin-4-yl)-[1,2,4]triazolo[4,3-c]pyrimidin-5-amine], the IC50 came to 0.0124 µM.

Regarding `Cc1c(-c2cnc(NCc3c(F)ccc4c3CCO4)n3cnnc23)ccnc1C(F)F` [Example 181, 8-(2-(difluoromethyl)-3-methylpyridin-4-yl)-N-((5-fluoro-2,3-dihydrobenzofuran-4-yl)methyl)-[1,2,4]triazolo[4,3-c]pyrimidin-5-amine], the IC50 is 0.0208 µM.

Turning to `Cc1c(-c2cnc(NCc3c(F)ccc4c3CCO4)n3cnnc23)ccnc1CF` [Example 182, N-((5-fluoro-2,3-dihydrobenzofuran-4-yl)methyl)-8-(2-(fluoromethyl)-3-methylpyridin-4-yl)-[1,2,4]triazolo[4,3-c]pyrimidin-5-amine], the IC50 came to 0.0025 µM.

Regarding `Cc1cnc(F)cc1-c1cnc(NCc2c(F)ccc3c2CCO3)n2cnnc12` [Example 183, N-((5-fluoro-2,3-dihydrobenzofuran-4-yl)methyl)-8-(2-fluoro-5-methylpyridin-4-yl)-[1,2,4]triazolo[4,3-c]pyrimidin-5-amine], the IC50 turned out to be 0.0106 µM.

For `Cc1cnc(C(F)(F)F)cc1-c1cnc(NCc2c(F)ccc3c2CCO3)n2cnnc12` [Example 184, N-((5-fluoro-2,3-dihydrobenzofuran-4-yl)methyl)-8-(5-methyl-2-(trifluoromethyl)pyridin-4-yl)-[1,2,4]triazolo[4,3-c]pyrimidin-5-amine], the IC50 amounted to 0.0777 µM.

For `Fc1ccc2c(c1CNc1ncc(-c3ccnc(C(F)(F)F)c3)c3nncn13)CCO2` [Example 185, N-((5-fluoro-2,3-dihydrobenzofuran-4-yl)methyl)-8-(2-(trifluoromethyl)pyridin-4-yl)-[1,2,4]triazolo[4,3-c]pyrimidin-5-amine], the IC50 came out at 0.0468 µM.

With `Cc1nn(C[C@@H](C)O)c(C)c1-c1cnc(NCc2c(F)ccc3c2CCO3)n2cnnc12` [Example 186, (2R)-1-(4-(5-(((5-fluoro-2,3-dihydrobenzofuran-4-yl)methyl)amino)-[1,2,4]triazolo[4,3-c]pyrimidin-8-yl)-3,5-dimethyl-1H-pyrazol-1-yl)propan-2-ol], the IC50 worked out at 0.0068 µM.
